The target of series [1] is T1, recombinant human GST-SYK (Homo sapiens, UniProt P43405).
T1 construct: purchased Carna Biosciences 08-176
As to the kind of experiment: Homogeneous Time-Resolved Fluorescence (HTRF) assay for the recombinant human Syk enzyme. In kind it is biochemical. The settings on record: GST-hSYK 5 pM, ATP 25 μM. The essentials: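 GST-hSYK (5 pM) was preincubated 10 min with inhibitor in 15 mM Tris-HCl pH 7.5, 0.01% tween 20, 2 mM DTT; reaction started with 250 nM biotinylated peptide, 5 mM Mg and 25 μM ATP, run 45 min at room temperature. Phosphopeptide detected by HTRF (Eu-anti-phosphotyrosine/SA-APC) after EDTA quench.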

The test system of a further series is PGD2. The settings on record: dosed intranasally, phase I/II study, allergic rhinitis; cited from earlier work.
The conditions of series [2]: phase II clinical trial, allergic rhinitis; cited from earlier work.
The mark [3] stands for this setting: IC50 rated in classes, read-out: rhSYK Activity.

“And” between values parts separate entries of the source, which are not always exact repeats. Equal values may be shown once. Read-outs that look alike come from different tables or passages of the source.

For `Cc1cc(Nc2nccc(C)n2)cc(-c2cc(CCC(=O)O)ncn2)c1` [Example 3.52, 3-(6-{3-methyl-5-[(4-methylpyrimidin-2-yl)amino]phenyl}pyrimidin-4-yl)propanoic acid], in series [1] (setting [3]), the IC50 lay within 1000 to 10000 nM.
With `CCOC(=O)CCc1cc(-c2cc(C)cc(Nc3nccc(C4CC4)n3)c2)ncn1` [Example 3.53, ethyl 3-(6-{3-[(4-cyclopropylpyrimidin-2-yl)amino]-5-methylphenyl}pyrimidin-4-yl)propanoate], the IC50 in series [1] (setting [3]) is 100 to 1000 nM.
For the molecule `Cc1cc(Nc2nccc(C3CC3)n2)cc(-c2cc(CCC(=O)O)ncn2)c1` [Example 3.54, 3-(6-{3-[(4-cyclopropylpyrimidin-2-yl)amino]-5-methylphenyl}pyrimidin-4-yl)propanoic acid], in series [1] (setting [3]), the IC50 is 100 to 1000 nM.
The same measure, in the same setting: for `Cc1cc(Nc2nccc(C)n2)cc(-c2cnc(CCC(=O)O)nc2)c1` [Example 3.55, 3-(5-{3-methyl-5-[(4-methylpyrimidin-2-yl)amino]phenyl}pyrimidin-2-yl)propanoic acid] the value was 100 to 1000 nM and < 100 nM.
As for `Cc1cc(Nc2nccc(C3CC3)n2)cc(-c2cnc(CCC(=O)O)nc2)c1` [Example 3.57, 3-(5-{3-[(4-cyclopropylpyrimidin-2-yl)amino]-5-methylphenyl}pyrimidin-2-yl)propanoic acid], in series [1] (setting [3]), the IC50 was less than 100 nM.
`Cc1cc(Nc2nccc(C(F)(F)F)n2)cc(-c2cnc(OC3CCC(C(=O)O)CC3)nc2)c1` (centres unmarked) [Example 3.58, 4-{[5-(3-methyl-5-{[4-(trifluoromethyl)pyrimidin-2-yl]amino}phenyl)pyrimidin-2-yl]oxy}cyclohexanecarboxylic acid]: the IC50 in series [1] (setting [3]) is less than 100 nM.
On the same count and under the same terms, next, `Cc1cc(Nc2nccc(C(F)(F)F)n2)cc(-c2cnc(OC3CCC(C(=O)O)CC3)nc2)c1` (centres unmarked) [Example 3.59, 4-{[5-(3-methyl-5-{[4-(trifluoromethyl)pyrimidin-2-yl]amino}phenyl)pyrimidin-2-yl]oxy}cyclohexanecarboxylic acid]: less than 100 nM; `Cc1cc(Nc2nccc(C(F)(F)F)n2)cc(-c2cnc(OC3CCC(C(=O)O)CC3)nc2)c1` (centres unmarked) [Example 3.60, 4-{[5-(3-methyl-5-{[4-(trifluoromethyl)pyrimidin-2-yl]amino}phenyl)pyrimidin-2-yl]oxy}cyclohexanecarboxylic acid]: less than 100 nM.
`Cc1cc(Nc2nccc(C)n2)cc(-c2cnc(CCC(=O)O)nc2)c1` [Example 3.61, 3-(5-{3-methyl-5-[(4-methylpyrimidin-2-yl)amino]phenyl}pyrimidin-2-yl)propanoic acid]: in series [1] (setting [3]), the IC50 was 100 to 1000 nM and < 100 nM.
For `Cc1cc(Nc2nccc(C(F)(F)F)n2)cc(-c2cnc(CCC(=O)O)nc2)c1` [Example 3.62, 3-[5-(3-methyl-5-{[4-(trifluoromethyl)pyrimidin-2-yl]amino}phenyl)pyrimidin-2-yl]propanoic acid], the IC50 in series [1] (setting [3]) is less than 100 nM.
For `Cc1cc(Nc2nccc(C(F)(F)F)n2)cc(-c2cnc(NC3(C(N)=O)CC3)nc2)c1` [Example 4.1, 1-{[5-(3-methyl-5-{[4-(trifluoromethyl)pyrimidin-2-yl]amino}phenyl)pyrimidin-2-yl]amino}cyclopropanecarboxamide], the IC50 in series [1] (setting [3]) was less than 100 nM; in series [1] (values in text, read-out: IC50) it was 21.6 nM.
With `Cc1cc(Nc2nccc(C(F)F)n2)cc(-c2cnc(C[C@H]3CC[C@H](C(=O)O)CC3)nc2)c1` [Example 5.1, trans-4-{[5-(3-{[4-(difluoromethyl)pyrimidin-2-yl]amino}-5-methylphenyl)pyrimidin-2-yl]methyl}cyclohexanecarboxylic acid], the IC50 in series [1] (setting [3]) was less than 100 nM; in series [1] (values in text, read-out: IC50), 2.9 nM.
For the molecule `Oc1cccc(Nc2ncc(F)c(Nc3cccc(O)c3)n2)c1` [Example R112], in the series with PGD2, the clinical safety entry is “safe across a range of indicators” and the “decrease in PGD2” value was “statistically significant decrease in PGD2”. The efficacy versus placebo result in series [2] is reported as “lack of efficacy versus placebo”.

These data come from patent US9416111B2, “Substituted diazine and triazine spleen tyrosine kinease (Syk) inhibitors” (Merck Sharp & Dohme Corp., priority 2012, dated 2016).
